Measured values published in patent US20230159527A1, “COMPOUNDS AS BCL-2 INHIBITORS” (Fochon Pharmaceuticals, Ltd., priority 2020, published 2023).
Like-named read-outs stand apart in the source and are kept apart here.

How the values were obtained:
Toledo cells = experiment: Cell proliferation assay, Toledo cells (MTS, 72 h); format: cell-based; conditions: Toledo cells, MTS, read-out: Toledo IC50
How it was run: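 Toledo cells (30000/well, RPMI-1640 with 10% FBS) were preincubated for 4 h. They were then exposed to nine compound concentrations from 10000 to 1.5 nM for 72 h at 37 °C, 5% CO2. MTS was added for 2 h and absorbance read at 490 nm to give IC50.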

RS4;11-BCL-2 G101V cells = experiment: Cell proliferation assay, engineered RS4;11 cells stably overexpressing BCL-2 G101V (MTS, 168 h); format: cell-based; conditions: read-out: RS4, 11 BCL2- G101V
Experimental: MTS testing kit was purchased from Promega (Madison, Wis., USA). The RPMI-1640, Fetal bovine serum and Penicillin-Streptomycin were purchased from BI (Biological Industries, Beit Haemek, Israel). Puromycin was purchased from Beyotime (shanghai, China). Dimethyl sulfoxide (DMSO) was purchased from Sigma (St. Louis, Mo., USA). RS4;1l-BCL-2 G101V and RS4;11-BCL-2 F104L cells were cultured in RPM11640 supplemented with 1 ug/mL puromycin, 100 U/mL Penicillin-Streptomycin and 10% FBS.
To investigate whether a compound is able to inhibit the activity of BCL-2 mutation in cells, a mechanism-based assay using engineered cell lines stably overexpressing BCL-2 mutation ([…] and […]) was developed. In this assay, the inhibition of BCL-2 mutation was reflected by the inhibition of cell proliferation of RS4;11-BCL-2 G101V and RS4;11-BCL-2 F104L cells. Cells were plated into 96-well plates at optimized cell density (RS4;11-BCL-2 G101V: 5000 cells/well; RS4;11-BCL-2 F104L: 5000 cells/well). Plates were incubated at 37° C., with 5% CO2 for 4 h. Compounds were serially diluted to the final-concentrations of 10000, 3333.3, 1111.1, 370.4, 123.5, 41.2, 13.7, 4.6 and 1.4 nM and added to the plates. Plates were incubated at 37° C., with 5% CO2 for 168 h. 20 μl MTS was added into each well and the plates were incubated at 37° C., with 5% CO2 exactly for 2 h. The absorbance was measured by a microplate reader at 490 nm. IC50 values were calculated using GraphPad Prism 5.0 software.

Compound	IC50 (Toledo cells; Homo sapiens) [nM]	IC50 (RS4;11-BCL-2 G101V cells) [nM]	IC50 (Toledo cells) [nM]	IC50 (RS4;11-BCL-2 G101V cells; Homo sapiens, RS4-11, 168 h) [nM]
CC(C)c1ccccc1[C@@H]1CCC[C@@H]1N1CC2(CCN(c3ccc(C(=O)NS(=O)(=O)c4cc5c(c([N+](=O)[O-])c4)N[C@@H]([C@H]4CC[C@](C)(O)CC4)CO5)c(Oc4cnc5[nH]cc(F)c5c4)c3)CC2)C1 (single isomer, unassigned) [Example D-28, 2-((3-fluoro-1H-pyrrolo[2,3-b]pyridin-5-yl)oxy)-N-(((S)-3-((1r,4S)-4-hydroxy-4-methylcyclohexyl)-5-nitro-3,4-dihydro-2H-benzo[b] [1,4]oxazin-7-yl)sulfonyl)-4-(2-((1S,2S or 1R,2R)-2-(2-isopropylphenyl)cyclopentyl)-2,7-diazaspiro[3.5]nonan-7-yl)benzamide]	1	13		
CC(C)c1ccccc1[C@@H]1CCC[C@@H]1N1CC2(CCN(c3ccc(C(=O)NS(=O)(=O)c4cc5c(c([N+](=O)[O-])c4)N[C@@H]([C@H]4CC[C@](C)(O)CC4)CO5)c(Oc4cnc5[nH]cc(F)c5c4)c3)CC2)C1 (single isomer, unassigned) [Example D-28a, 2-((3-fluoro-1H-pyrrolo[2,3-b]pyridin-5-yl)oxy)-N-(((S)-3-((1r,4S)-4-hydroxy-4-methylcyclohexyl)-5-nitro-3,4-dihydro-2H-benzo[b] [1,4]oxazin-7-yl)sulfonyl)-4-(2-((1S,2S or 1R,2R)-2-(2-isopropylphenyl)cyclopentyl)-2,7-diazaspiro[3.5]nonan-7-yl)benzamide]		1	1	
CC(C)c1ccccc1[C@@H]1CCC[C@@H]1N1CC2(CCN(c3ccc(C(=O)NS(=O)(=O)c4ccc(NC[C@H]5CC[C@](C)(O)CC5)c([N+](=O)[O-])c4)c(Oc4cnc5[nH]cc(F)c5c4)c3)CC2)C1 (single isomer, unassigned) [Example D-34a, 2-((3-fluoro-1H-pyrrolo[2,3-b]pyridin-5-yl)oxy)-N-((4-((1r,4r)-4-hydroxy-4-methylcyclohexyl)methyl)amino)-3-nitrophenyl) sulfonyl)-4-(2-((1S,2S or 1R,2R)-2-(2-isopropylphenyl)cyclopentyl)-2,7-diazaspiro[3.5]nonan-7-yl)benzamide]	1	18		
CNCCOc1nc2[nH]ccc2cc1Oc1cc(N2CCC3(CC2)CC(N2CCC[C@H]2c2ccccc2C(C)C)C3)ccc1C(=O)NS(=O)(=O)c1cc2c(c([N+](=O)[O-])c1)N[C@@H]([C@H]1CC[C@](C)(O)CC1)CO2 (single isomer, unassigned) [Example D-59, N-(((S)-3-((1r,4S)-4-hydroxy-4-methylcyclohexyl)-5-nitro-3,4-dihydro-2H-benzo[b][1,4]oxazin-7-yl)sulfonyl)-4-(2-((R or S)-2-(2-isopropylphenyl)pyrrolidin-1-yl)-7-azaspiro[3.5]nonan-7-yl)-2-((6-(2-(methylamino)ethoxy)-1H-pyrrolo[2,3-b]pyridin-5-yl)oxy)benzamide]	1			15
CC(C)c1ccccc1[C@@H]1CCCN1C1CC2(CCN(c3ccc(C(=O)NS(=O)(=O)c4cc5c(c([N+](=O)[O-])c4)N[C@@H]([C@H]4CC[C@](C)(O)CC4)CO5)c(Oc4cc5cc[nH]c5nc4OCCN4CCOCC4)c3)CC2)C1 (single isomer, unassigned) [Example D-63, N-(((S)-3-((1r,4S)-4-hydroxy-4-methylcyclohexyl)-5-nitro-3,4-dihydro-2H-benzo[b][1,4]oxazin-7-yl)sulfonyl)-4-(2-((R or S)-2-(2-isopropylphenyl)pyrrolidin-1-yl)-7-azaspiro[3.5]nonan-7-yl)-2-((6-(2-morpholinoethoxy)-1H-pyrrolo[2,3-b]pyridin-5-yl)oxy) benzamide]	1			1
CC(C)c1ccccc1[C@@H]1CCCN1C1CC2(CCN(c3ccc(C(=O)NS(=O)(=O)c4cc5c(c([N+](=O)[O-])c4)N[C@@H]([C@H]4CC[C@](C)(O)CC4)CO5)c(Oc4cc5cc[nH]c5nc4OC4COC4)c3)CC2)C1 (single isomer, unassigned) [Example D-72, N-(((S)-3-((1r,4S)-4-hydroxy-4-methylcyclohexyl)-5-nitro-3,4-dihydro-2H-benzo[b][1,4]oxazin-7-yl)sulfonyl)-4-(2-((R or S)-2-(2-isopropylphenyl)pyrrolidin-1-yl)-7-azaspiro[3.5]nonan-7-yl)-2-((6-(oxetan-3-yloxy)-1H-pyrrolo[2,3-b]pyridin-5-yl)oxy) benzamide]	1			17
COCCOc1nc2[nH]ccc2cc1Oc1cc(N2CCC3(CC2)CN([C@H]2CCC[C@H]2c2ccccc2C(C)C)C3)ccc1C(=O)NS(=O)(=O)c1cc2c(c([N+](=O)[O-])c1)N[C@@H]([C@H]1CC[C@](C)(O)CC1)CO2 (single isomer, unassigned) [Example D-75b, N-(((S)-3-((1r,4S)-4-hydroxy-4-methylcyclohexyl)-5-nitro-3,4-dihydro-2H-benzo[b][1,4]oxazin-7-yl)sulfonyl)-4-(2-((1S,2S or 1R,2R)-2-(2-isopropylphenyl)cyclopentyl)-2,7-diazaspiro[3.5]nonan-7-yl)-2-((6-(2-methoxyethoxy)-1H-pyrrolo[2,3-b]pyridin-5-yl)oxy) benzamide]	1			16
CC(C)c1ccccc1[C@@H]1CN(S(C)(=O)=O)CCN1C1CC2(CCN(c3ccc(C(=O)NS(=O)(=O)c4cc5c(c([N+](=O)[O-])c4)N[C@@H]([C@H]4CC[C@](C)(O)CC4)CO5)c(Oc4cnc5[nH]cc(F)c5c4)c3)CC2)C1 (single isomer, unassigned) [Example D-80, 2-((3-fluoro-1H-pyrrolo[2,3-b]pyridin-5-yl)oxy)-N-(((S)-3-((1r,4S)-4-hydroxy-4-methylcyclohexyl)-5-nitro-3,4-dihydro-2H-benzo[b] [1,4]oxazin-7-yl)sulfonyl)-4-(2-((R or S)-2-(2-isopropylphenyl)-4-(methylsulfonyl)piperazin-1-yl)-7-azaspiro[3.5]nonan-7-yl)benzamide]	1			8
CC(C)c1ccccc1[C@@H]1CN(C(=O)C2CC2)CCN1C1CC2(CCN(c3ccc(C(=O)NS(=O)(=O)c4cc5c(c([N+](=O)[O-])c4)N[C@@H]([C@H]4CC[C@](C)(O)CC4)CO5)c(Oc4cnc5[nH]cc(F)c5c4)c3)CC2)C1 (single isomer, unassigned) [Example D-82, 4-(2-((R or S)-4-(cyclopropanecarbonyl)-2-(2-isopropylphenyl)piperazin-1-yl)-7-azaspiro[3.5]nonan-7-yl)-2-((3-fluoro-1H-pyrrolo[2,3-b]pyridin-5-yl)oxy)-N-(((S)-3-((1r,4S)-4-hydroxy-4-methylcyclohexyl)-5-nitro-3,4-dihydro-2H-benzo[b][1,4]oxazin-7-yl)sulfonyl)benzamide]	1			19
CCOc1nc2[nH]ccc2cc1Oc1cc(N2CCC3(CC2)CN([C@H]2CCC[C@H]2c2ccccc2C(C)C)C3)ccc1C(=O)NS(=O)(=O)c1ccc(NC[C@H]2CC[C@](C)(O)CC2)c([N+](=O)[O-])c1 (single isomer, unassigned) [Example D-92, 2-((6-ethoxy-1H-pyrrolo[2,3-b]pyridin-5-yl)oxy)-N-((4-((((1r,4r)-4-hydroxy-4-methylcyclohexyl)methyl)amino)-3-nitrophenyl)sulfonyl)-4-(2-((1S,2S or 1R,2R)-2-(2-isopropylphenyl)cyclopentyl)-2,7-diazaspiro[3.5]nonan-7-yl)benzamide]	1			1
COc1nc2[nH]ccc2cc1Oc1cc(N2CCC3(CC2)CN([C@H]2CCC[C@H]2c2ccccc2C(C)C)C3)ccc1C(=O)NS(=O)(=O)c1cc2c(c([N+](=O)[O-])c1)N[C@@H]([C@H]1CC[C@](C)(O)CC1)CO2 (single isomer, unassigned) [Example D-97, N-(((S)-3-((1r,4S)-4-hydroxy-4-methylcyclohexyl)-5-nitro-3,4-dihydro-2H-benzo[b][1,4]oxazin-7-yl)sulfonyl)-4-(2-((1S,2S or 1R,2R)-2-(2-isopropylphenyl)cyclopentyl)-2,7-diazaspiro[3.5]nonan-7-yl)-2-((6-methoxy-1H-pyrrolo [2,3-b]pyridin-5-yl)oxy)benzamide]	1			12
CCOc1nc2[nH]ccc2cc1Oc1cc(N2CCC3(CC2)CN([C@H]2CCC[C@H]2c2ccccc2C(C)C)C3)ccc1C(=O)NS(=O)(=O)c1cc2c(c([N+](=O)[O-])c1)N[C@@H]([C@H]1CC[C@](C)(O)CC1)CO2 (single isomer, unassigned) [Example D-98, 2-((6-ethoxy-1H-pyrrolo[2,3-b]pyridin-5-yl)oxy)-N-((S)-3-((1r,4S)-4-hydroxy-4-methylcyclohexyl)-5-nitro-3,4-dihydro-2H-benzo[b] [1,4]oxazin-7-yl)sulfonyl)-4-(2-((1S,2S or 1R,2R)-2-(2-isopropylphenyl)cyclopentyl)-2,7-diazaspiro[3.5]nonan-7-yl)benzamide]	1			1
